Experimental data taken from article doi:10.1101/838656v1 (biorxiv, 2019).
Where two headings read alike, the source gives them in different places.

Key:
[1] = tested on: HMGA2 (mammalian high mobility group protein AT-hook 2); conditions: read-out: Lance Screen IC50; DNA-binding compound; inhibitor
[2] = tested on: HMGA2 (mammalian high mobility group protein AT-hook 2); conditions: read-out: Alpha Screen IC50; DNA-binding compound; inhibitor
[3] = molecular target: BRD4-BD1 (bromodomain-containing protein 4) (Homo sapiens, UniProt O60885); test: biochemical
in vitro = conditions: human, a431 cells

Row | SMILES | IC50 [3] | IC50 [1] | IC50 [2] | CC50 (in vitro)
1 | O=C1c2c(O)ccc(O)c2C(=O)c2c(NCCNCCO)ccc(NCCNCCO)c21 [Mitoxantrone] | 0.99 µM | 1.77 µM | 0.18 µM | 1.65 µM
2 | COc1cccc2c1C(=O)c1c(O)c3c(c(O)c1C2=O)C[C@@](O)(C(C)=O)C[C@@H]3O[C@H]1C[C@H](NCc2ccc(CN[C@@H]3C[C@@H](O[C@H]4C[C@](O)(C(C)=O)Cc5c(O)c6c(c(O)c54)C(=O)c4c(OC)cccc4C6=O)O[C@H](C)[C@@H]3O)cc2)[C@H](O)[C@H](C)O1 [WP631] | 2.05 µM | 0.17 µM | 0.044 µM | 0.17 µM

More lines, main results first:

Row | IC50 [3] | SMILES | IC50 [1] | IC50 [2] | CC50 (in vitro)
3 | 16.9 µM | Nc1ccc(-c2nc3ccc(-c4nc5ccc(N)cc5[nH]4)cc3[nH]2)cc1 [Ro 90-7501] | – | – | > 100 µM
4 | 5 µM | O=C(O)C1=CC(=C(c2ccc(O)c(C(=O)O)c2)c2ccc(O)c(C(=O)O)c2)C=CC1=O [aurintricarboxylic acid] | – | – | > 100 µM
5 | > 100 µM | Cc1ccc(C(=O)Nc2ccc(S(=O)(=O)O)c3cc(S(=O)(=O)O)cc(S(=O)(=O)O)c23)cc1NC(=O)c1cccc(NC(=O)Nc2cccc(C(=O)Nc3cc(C(=O)Nc4ccc(S(=O)(=O)O)c5cc(S(=O)(=O)O)cc(S(=O)(=O)O)c45)ccc3C)c2)c1 [suramin] | – | – | > 100 µM
